This is an account of results in patent US20230158176A1, “NEAR-INFRARED FLUORESCENT SMALL-MOLECULE PROBE, SYNTHESIS METHOD AND APPLICATION THEREOF” (Linyi University, priority 2021, published 2023).

Data set [1] is described as follows: In vitro photothermal efficiency under 808 nm laser radiation. It is filed as physicochemical. The note with it: for highest temperature of the solution: 2.0 W/cm^2, solutions 0.2-1.2 mg/mL in PBS. As to the method:
To evaluate in vitro thermogenesis of IR-780 solution and IR-780-F solution, 10 millimoles per litter (mM) IR-780-F solution dissolved in the dimethyl sulfoxide is used, and the IR-780-F solution is respectively diluted to the concentrations of 0.2 milligrams per milliliters (mg/mL), 0.4 mg/mL, 0.8 mg/mL, and 1.2 mg/mL with the phosphate buffered saline and these IR-780-F solutions and the phosphate buffered saline are evaluated. The IR-780 solution is prepared as above.
Temperature changes of the IR-780-F solutions and the phosphate buffered saline and temperature changes of the IR-780 solutions and the phosphate buffered saline are respectively recorded by using an infrared thermal imaging camera (a model of FLIR-E6). The phosphate buffered saline as a control group, 0.2 mg/mL of the IR-780-F solution and 0.2 mg/mL of the IR-780 solution, 0.4 mg/mL of the IR-780-F solution and 0.4 mg/mL of the IR-780 solution, 0.8 mg/mL of the IR-780-F solution and 0.8 mg/mL of the IR-780 solution, 1.2 mg/mL of the IR-780-F solution and 1.2 mg/mL of the IR-780 solution are all exposed to 808 nm laser radiation with a power density of 2.0 Watt per square centimeter (W/cm^2) to be measured and recorded the temperature changes.

Data set [2] deals with murine mammary carcinoma cells (4T1 cells). As to the kind of experiment: In vitro evaluation of cytotoxicity by CCK-8. It is filed as cell-based. Particulars: 10 μM to 60 μM, incubated 1 h. As to the method:
Respective toxicity of the IR-780-F solution and the IR-780 solution with concentrations from 10 μM to 60 μM on murine mammary carcinoma cells (also referred to as 4T1 cells) is measured by cell counting kit-8 (CCK-8). Incubated 4T1 cells are collected and centrifuged to prepare cell suspensions, and a cell concentration is adjusted to 8×10^4 cells per milliliter. The 4T1 cells are transferred to 96-well plates, and 100 microliters (μL) 4T1 cells are added to each well, so that a density of the cells to be tested is about 8000 cells per well, and the number of the 96-well plates for experiment is two. The two 96-well plates inoculated with the cells to be tested are placed in an incubator at 37° C. for 12 h. One plate is incubated with the IR-780-F solutions with a concentration gradient from 10 μM to 60 μM for 1 h; the other plate is incubated with the IR-780 solutions with a concentration gradient from 10 μM to 60 μM for 1 h. After the end of incubation, CCK-8 reagent (a volume of 10 μL, a concentration of 5 mg/mL, i.e. 0.5% CCK-8 reagent) is immediately added to the each well and the two 96-well plates continue to incubate for 40 min. Finally, absorptivity and intensity of the each well are tested by an enzyme calibration, and cell viability of the control group is taken as 100%, and the cell viability of the test groups are taken as the percentage of the control group.

Data set [3] has as its system 4T1 tumor-bearing nude mice. As to the kind of experiment: In vivo NIR fluorescence imaging / distribution in tumor-bearing mice. Further details: species or system BALB/c Nude mice. The note with it: 4 mg/kg via tail vein. As to the method: (§1) The incubated 4T1 cells are collected by centrifugation, rinsed three times with PBS buffer solution to prepare cell suspensions, which are used a cell counter to count cell number. The cell suspensions are respectively diluted to desired concentrations with the PBS buffer solution. The pretreated 4T1 cells (about 1×10^6 per 100 μL) are injected subcutaneously into right hind legs of BALB/c Nude mice and tumor model mice are obtained after about one week.
In order to determine an optimal time for in vivo photothermal treatment with the IR-780-F, tissue permeability and distribution of the IR-780-F in tumor-bearing mice are examined by means of a whole animal near infrared (NIR) imaging system. An injection of the IR-780-F (containing 12.4% dimethyl sulfoxide) is prepared with PBS buffer solution. When the tumors in the tumor-bearing mice grow to a certain volume, 4 milligrams per kilogram of the tumor-bearing mice (mg/kg) IR-780-F is injected into the tumor-bearing mice via tail vein. The anesthetized nude mice are placed into a in vivo imaging apparatus (also referred to as living imaging apparatus) and subjected to fluorescence imaging at 0 h, 2 h, 4 h, 8 h, 12 h, 24 h, 48 h, 72 h, 96 h and 120 h. […] The organs are placed in the living imaging apparatus to observe fluorescence distribution of each organ.

Data set [4] has as its system 4T1 tumor-bearing nude mice. As to the kind of experiment: Photothermal efficiency at tumor location in vivo. More on the design: species or system BALB/c Nude mice. The note with it: IR-780-F+laser radiation group, intratumoral injection, laser 4 minutes. The method, then:
as §1
The injection of the IR-780-F (containing 12.4% dimethyl sulfoxide) is prepared with PBS buffer solution for intratumoral injection. After 12 hours, the nude mice are anesthetized, imaged using a photothermal imager, and temperature changes are recorded. The tumor locations of the mice are irradiated with a laser for 4 minutes, and then the photothermal imaging is again performed on the corresponding tumor locations to record the corresponding temperature.

The nature of data set [5]: Molecular spectrum test (absorption and emission spectra). Particulars: for maximum emission wavelength: λex 740 nm. The format is physicochemical. As to the method: A certain mass of the IR-780-F sample is weighed and dissolved in dimethyl sulfoxide (DMSO) to obtain a solving solution, and the quantitative solving solution is added to 2-[4-(2-hydroxyethyl)-1-piperazinyl]-ethanesulfonic acid (HEPES, also referred to as C8H18N2O4S) buffer solution to form a solution with a concentration of 10.0 micromoles per liter […] (containing 10% dimethyl sulfoxide) and an absorption spectrum of the IR-780-F sample is measured. Ultraviolet absorption spectrum is obtained by Agilent Ultraviolet-Vis spectrophotometer with a scanning wavelength range from 500 nanometers (nm) to 900 nm at a sweep rate of 1002 nanometers per minute (nm/min). Furthermore, addition quantitative solving solution is respectively added to methanol, acetonitrile, phosphate buffered saline (PBS buffer solution), HEPES buffer solution, bovine serum and adult serum to form a solution with a concentration of 10.0 μM (containing 10% dimethyl sulfoxide) to test an emission spectrum of the IR-780-F sample. Hitachi F-4600 […] is used to obtain FT-IR emission spectrum, of the scanning wavelength is from 750 nm to 900nm, an excitation wavelength λex is 740 nm, an excitation slit width is 5 nm, and an emission slit width is 5 nm.

Data set [6] has as its system 4T1 tumor-bearing nude mice. Kind of data set: Photothermal treatment effect in tumor-bearing mice. It is filed as in vivo, BALB/c Nude mice. The method, then: as §1
After successful tumor loading, mice with an average tumor diameter of about 10×10 mm are randomly divided into four groups (5 mice in each group): (1) control group: intratumoral injection of 0.1 mL of saline; (2) laser group: intratumoral injection of 0.1 mL of saline followed by a laser radiation (a wavelength of 808 nm, 2.0 W/cm^2, 4 min); (3) IR-780-F group: intratumoral injection of 0.1 mL (corresponding to 80 micrograms abbreviated μg) of the IR-780-F solution without the laser radiation; (4) IR-780-F+laser group: intratumoral injection of 80 μg of the IR-780-F solution followed by the laser radiation (a wavelength of 808 mn, 2.0 W/cm^2, 4 min). The mice are anesthetized after administration of the medicine, and the tumor locations of the mice are placed under the laser radiation. When the laser irradiated the tumor locations of the mice, the temperature of the tumor locations under the laser radiation are simultaneously recorded when measured by the thermal infrared imager.

As to `CCCN1/C(=C/C=C2\CCCC(/C=C/C3=[N+](CCC)c4ccccc4C3(C)C)=C2Cl)C(C)(C)c2ccccc21.[I-]` [IR-780, reference compound], in data set [1], the “highest temperature of the solution” value came to 69.3 °C. Besides, the “cell viability of the 4T1 cells” value in data set [2] is reported as “decreases with the increase of the concentrations”.
On to `CC1(C)C(/C=C/C2=C(Cl)C(=C/C=C3/N(CCC(F)(F)F)c4ccccc4C3(C)C)/CCC2)=[N+](CCC(F)(F)F)c2ccccc21` [IR-780-F], for which, in data set [3] (dissected five days later), the “fluorescence distribution in dissected organs and tumors” value is “mainly concentrated at the tumor location and there is weak fluorescence in the lungs”. Further, the “distribution of near-infrared fluorescence in vivo” value in data set [3] (imaging 0-120 h) was “significant tumor targeting accumulation”. For the same compound, in data set [4], the “surface temperature of the tumor locations” value is 52.9±0.2 °C. Moreover, the “photothermal conversion effect compared with IR-780” value in data set [1] is on record as “better photothermal conversion effect than that of the IR-780”. The “highest temperature of the solution” value in data set [1] is 69.3 °C. The “cell viability of the 4T1 cells” value in data set [2] is listed as “decreases with the increase of the concentrations”. Besides, the “Stoke shift value (difference between maximum emission wavelength and maximum absorption wavelength)” value in data set [5] is 38 nm. The maximum emission wavelength in data set [5] (in FBS) is listed as 820 nm; in data set [5] (in HAS), 818 nm; in data set [5] (in HEPES), 804 nm; in data set [5] (in MeCN), 816 nm; in data set [5] (in MeOH), 814 nm. The maximum absorption wavelength in data set [5] (in HEPES, 10.0 μM, 10% dimethyl sulfoxide) is recorded as 773 nm. For the same compound, in data set [6] (IR-780-F group: 80 μg intratumoral without laser radiation, 12th day), the tumor size is reported as 559±49 mm^3. Besides, the tumor growth entry in data set [6] (IR-780-F without laser, compared with laser alone and control PBS group, P>0.05) is “does not show a significant inhibition”; in data set [6] (IR-780-F+laser radiation, P<0.01), “significantly inhibited”. Further, in data set [6] (IR-780-F+laser group: 80 μg intratumoral, 808 nm, 2.0 W/cm^2, 4 min, 12th day), the mean tumor size was 94±11 mm^3. Besides, the “tumor volumes of excised tumors” value in data set [6] (IR-780-F+laser radiation group, sacrificed at the 12th day) is “significantly smaller than those in the other three groups”.
